Assays:
Format in all cases: functional
Digitaria sanguinalis [1] = assay: Pre-emergence herbicidal activity against Digitaria sanguinalis (hairy crabgrass) assessed as growth inhibition at 450 ai g/ha after 20 days by green house test
Digitaria sanguinalis [2] = assay: Pre-emergence herbicidal activity against Digitaria sanguinalis (hairy crabgrass) assessed as growth inhibition at 150 ai g/ha after 20 days by green house test
Chenopodium album [3] = assay: Post-emergence herbicidal activity against Chenopodium album assessed as growth inhibition at 450 ai g/ha after 20 days by green house test
Chenopodium album [4] = assay: Post-emergence herbicidal activity against Chenopodium album assessed as growth inhibition at 150 ai g/ha after 20 days by green house test
Chenopodium album [5] = assay: Pre-emergence herbicidal activity against Chenopodium album assessed as growth inhibition at 450 ai g/ha after 20 days by green house test
Chenopodium album [6] = assay: Pre-emergence herbicidal activity against Chenopodium album assessed as growth inhibition at 150 ai g/ha after 20 days by green house test
Amaranthus spinosus [7] = assay: Post-emergence herbicidal activity against Amaranthus spinosus assessed as growth inhibition at 450 ai g/ha after 20 days by green house test
Amaranthus spinosus [8] = assay: Post-emergence herbicidal activity against Amaranthus spinosus assessed as growth inhibition at 150 ai g/ha after 20 days by green house test
Abutilon theophrasti [9] = assay: Pre-emergence herbicidal activity against Abutilon theophrasti (velvetleaf) assessed as growth inhibition at 450 ai g/ha after 20 days by green house test
Abutilon theophrasti [10] = assay: Pre-emergence herbicidal activity against Abutilon theophrasti (velvetleaf) assessed as growth inhibition at 150 ai g/ha after 20 days by green house test
Medicago sativa [11] = assay: Post-emergence herbicidal activity against Medicago sativa (alfalfa) assessed as growth inhibition at 1500 ai g/ha after 20 days by green house test
Amaranthus retroflexus [12] = assay: Post-emergence herbicidal activity against Amaranthus retroflexus assessed as growth inhibition at 1500 ai g/ha after 20 days by green house test
[13] = tested on: Brassica rapa subsp. oleifera; assay: Post-emergence herbicidal activity against Brassica rapa subsp. oleifera Si Yue Man assessed as growth inhibition at 1500 ai g/ha after 20 days by green house test
Digitaria sanguinalis [14] = assay: Post-emergence herbicidal activity against Digitaria sanguinalis (hairy crabgrass) assessed as growth inhibition at 1500 ai g/ha after 20 days by green house test
Echinochloa crus-galli [15] = assay: Post-emergence herbicidal activity against Echinochloa crus-galli (barnyard grass) assessed as growth inhibition at 1500 ai g/ha after 20 days by green house test
Medicago sativa [16] = assay: Pre-emergence herbicidal activity against Medicago sativa (alfalfa) assessed as growth inhibition at 1500 ai g/ha after 20 days by green house test
Amaranthus retroflexus [17] = assay: Pre-emergence herbicidal activity against Amaranthus retroflexus assessed as growth inhibition at 1500 ai g/ha after 20 days by green house test
[18] = tested on: Brassica rapa subsp. oleifera; assay: Pre-emergence herbicidal activity against Brassica rapa subsp. oleifera Si Yue Man assessed as growth inhibition at 1500 ai g/ha after 20 days by green house test
Digitaria sanguinalis [19] = assay: Pre-emergence herbicidal activity against Digitaria sanguinalis (hairy crabgrass) assessed as growth inhibition at 1500 ai g/ha after 20 days by green house test
Echinochloa crus-galli [20] = assay: Pre-emergence herbicidal activity against Echinochloa crus-galli (barnyard grass) assessed as growth inhibition at 1500 ai g/ha after 20 days by green house test
Amaranthus spinosus [21] = assay: Pre-emergence herbicidal activity against Amaranthus spinosus assessed as growth inhibition at 450 ai g/ha after 20 days by green house test
Amaranthus spinosus [22] = assay: Pre-emergence herbicidal activity against Amaranthus spinosus assessed as growth inhibition at 150 ai g/ha after 20 days by green house test
Abutilon theophrasti [23] = assay: Post-emergence herbicidal activity against Abutilon theophrasti (velvetleaf) assessed as growth inhibition at 450 ai g/ha after 20 days by green house test
Abutilon theophrasti [24] = assay: Post-emergence herbicidal activity against Abutilon theophrasti (velvetleaf) assessed as growth inhibition at 150 ai g/ha after 20 days by green house test
Setaria viridis [25] = assay: Post-emergence herbicidal activity against Setaria viridis (green foxtail) assessed as growth inhibition at 450 ai g/ha after 20 days by green house test
Setaria viridis [26] = assay: Post-emergence herbicidal activity against Setaria viridis (green foxtail) assessed as growth inhibition at 150 ai g/ha after 20 days by green house test
Setaria viridis [27] = assay: Pre-emergence herbicidal activity against Setaria viridis (green foxtail) assessed as growth inhibition at 450 ai g/ha after 20 days by green house test
Setaria viridis [28] = assay: Pre-emergence herbicidal activity against Setaria viridis (green foxtail) assessed as growth inhibition at 150 ai g/ha after 20 days by green house test
Digitaria sanguinalis [29] = assay: Post-emergence herbicidal activity against Digitaria sanguinalis (hairy crabgrass) assessed as growth inhibition at 450 ai g/ha after 20 days by green house test
Digitaria sanguinalis [30] = assay: Post-emergence herbicidal activity against Digitaria sanguinalis (hairy crabgrass) assessed as growth inhibition at 150 ai g/ha after 20 days by green house test
Digitaria sanguinalis [31] = assay: Post-emergence herbicidal activity against Digitaria sanguinalis (hairy crabgrass) assessed as growth inhibition at 75 ai g/ha after 20 days by green house test
Digitaria sanguinalis [32] = assay: Pre-emergence herbicidal activity against Digitaria sanguinalis (hairy crabgrass) assessed as growth inhibition at 75 ai g/ha after 20 days by green house test
Chenopodium album [33] = assay: Post-emergence herbicidal activity against Chenopodium album assessed as growth inhibition at 75 ai g/ha after 20 days by green house test
Chenopodium album [34] = assay: Pre-emergence herbicidal activity against Chenopodium album assessed as growth inhibition at 75 ai g/ha after 20 days by green house test
Amaranthus spinosus [35] = assay: Post-emergence herbicidal activity against Amaranthus spinosus assessed as growth inhibition at 75 ai g/ha after 20 days by green house test
Abutilon theophrasti [36] = assay: Post-emergence herbicidal activity against Abutilon theophrasti (velvetleaf) assessed as growth inhibition at 75 ai g/ha after 20 days by green house test
Abutilon theophrasti [37] = assay: Pre-emergence herbicidal activity against Abutilon theophrasti (velvetleaf) assessed as growth inhibition at 75 ai g/ha after 20 days by green house test
Amaranthus spinosus [38] = assay: Pre-emergence herbicidal activity against Amaranthus spinosus assessed as growth inhibition at 75 ai g/ha after 20 days by green house test
Setaria viridis [39] = assay: Post-emergence herbicidal activity against Setaria viridis (green foxtail) assessed as growth inhibition at 75 ai g/ha after 20 days by green house test
Setaria viridis [40] = assay: Pre-emergence herbicidal activity against Setaria viridis (green foxtail) assessed as growth inhibition at 75 ai g/ha after 20 days by green house test

| Compound | growth inhibition (GI) (Digitaria sanguinalis [1]) | growth inhibition (GI) (Digitaria sanguinalis [2]) | growth inhibition (GI) (Chenopodium album [3]) | growth inhibition (GI) (Chenopodium album [4]) | growth inhibition (GI) (Chenopodium album [5]) | growth inhibition (GI) (Chenopodium album [6]) | growth inhibition (GI) (Amaranthus spinosus [7]) | growth inhibition (GI) (Amaranthus spinosus [8]) | growth inhibition (GI) (Abutilon theophrasti [9]) | growth inhibition (GI) (Abutilon theophrasti [10]) | growth inhibition (GI) (Medicago sativa [11]) | growth inhibition (GI) (Amaranthus retroflexus [12]) | growth inhibition (GI) [13] | growth inhibition (GI) (Digitaria sanguinalis [14]) | growth inhibition (GI) (Echinochloa crus-galli [15]) | growth inhibition (GI) (Medicago sativa [16]) | growth inhibition (GI) (Amaranthus retroflexus [17]) | growth inhibition (GI) [18] | growth inhibition (GI) (Digitaria sanguinalis [19]) | growth inhibition (GI) (Echinochloa crus-galli [20]) | also measured |
| --- | --- | --- | --- | --- | --- | --- | --- | --- | --- | --- | --- | --- | --- | --- | --- | --- | --- | --- | --- | --- | --- |
| COP(=O)(OC)C(C)OC(=O)COc1ccc(Cl)cc1C (stereo not given) | 16% | 0% | 80% | 60% | 0% | 0% | 100% | 10% | 0% | 0% | 50% | 90% | 90% | 50% | 50% | 90% | 90% | 90% | 90% | 90% | growth inhibition (GI) (Amaranthus spinosus [21]): 30%; growth inhibition (GI) (Amaranthus spinosus [22]): 0%; growth inhibition (GI) (Abutilon theophrasti [23]): 96%; growth inhibition (GI) (Abutilon theophrasti [24]): 82%; growth inhibition (GI) (Setaria viridis [25]): 0%; growth inhibition (GI) (Setaria viridis [26]): 0%; growth inhibition (GI) (Setaria viridis [27]): 0%; growth inhibition (GI) (Setaria viridis [28]): 0%; growth inhibition (GI) (Digitaria sanguinalis [29]): 10%; growth inhibition (GI) (Digitaria sanguinalis [30]): 0% |
| COP(=O)(OC)C(OC(=O)COc1ccc(Cl)cc1C)c1cccc([N+](=O)[O-])c1 (stereo not given) | 0% | 0% | 100% | 82.5% | 0% | 0% | 100% | 100% | 0% | 0% | 50% | 90% | 75% | <=50% | 75% | 75% | 75% | 50% | 90% | 90% | growth inhibition (GI) (Digitaria sanguinalis [31]): 0%; growth inhibition (GI) (Digitaria sanguinalis [32]): 0%; growth inhibition (GI) (Chenopodium album [33]): 52.5%; growth inhibition (GI) (Chenopodium album [34]): 0%; growth inhibition (GI) (Amaranthus spinosus [35]): 50%; growth inhibition (GI) (Abutilon theophrasti [36]): 50%; growth inhibition (GI) (Abutilon theophrasti [37]): 0%; growth inhibition (GI) (Amaranthus spinosus [21]): 0%; growth inhibition (GI) (Amaranthus spinosus [22]): 0%; growth inhibition (GI) (Amaranthus spinosus [38]): 0%; growth inhibition (GI) (Abutilon theophrasti [23]): 100%; growth inhibition (GI) (Abutilon theophrasti [24]): 90%; growth inhibition (GI) (Setaria viridis [25]): 0%; growth inhibition (GI) (Setaria viridis [26]): 0%; growth inhibition (GI) (Setaria viridis [39]): 0%; growth inhibition (GI) (Setaria viridis [27]): 0%; growth inhibition (GI) (Setaria viridis [28]): 0%; growth inhibition (GI) (Setaria viridis [40]): 0%; growth inhibition (GI) (Digitaria sanguinalis [29]): 10%; growth inhibition (GI) (Digitaria sanguinalis [30]): 0% |

Reference: ChEMBL document CHEMBL3045592, “Studies of O,O-dimethyl α-(2,4-dichlorophenoxyacetoxy)ethylphosphonate (HW02) as a new herbicide. 1. Synthesis and herbicidal activity of HW02 and analogues as novel inhibitors of pyruvate dehydrogenase complex” (J Agric Food Chem, 2011)
